Results from patent publication US12421489B2, “Biological control of plant pathogenic microorganisms” (priority 2016, dated 2025).

Test system: Monilinia fructicola
Experiment: Cherry inoculation assays 1 and 3: Monilinia fruit rot of ‘Sweet Valentine’ cherries, dip treatment
Type: in vivo
Conditions: Assay 1, cherries, cumulative after 13 days; Nil 50%; reductions not significant
Method: Fruit-based screening assays were conducted in laboratories at the Plant and Food Research Ruakura Research Centre, Hamilton, New Zealand (PFR). PFR assays focused on dip treatment application of YBCA5 and fungicide controls.
Fruit for Monilinia fructicola and Botrytis spp. inoculation assays were carried out on sweet cherries (Prunus avium ‘Sweet Valentine’) that were picked at the harvest mature stage and sourced from the PFR Clyde Research Orchard in Central Otago on 8 Jan. 2016 for fruit based assays 1 and 2. A second harvest was carried out on 13 Jan. 2016 for fruit based assays 3 and 4.
Each cherry was then subjected to a double wash process. Wash one consisted of 10 minutes in tap water on a rotary shaker (110 rpm) followed by a five minute wash in SDW (Wash 2). […]
A Monilinia fructicola culture (isolate code MFGQ3), which had been originally isolated from an infected peach tree located in the Hamilton region during 1998, was used for the spray inoculation assays included in this section (Ruakura based assay). […] This stock suspension was then filtered using a 70 μm cell strainer (to remove mycelial fragments), the concentration determined using a haemocytometer and then adjusted, by dilution with SDW+Tw 80 (0.05%) to a final concentration of 1×10^4 conidia/mL. […]

Q: `CC(C)NC(=O)N1CC(=O)N(c2cc(Cl)cc(Cl)c2)C1=O` [iprodione] was tested. Which “incidence of Monilinia fruit rot” value did it give?
A: 22%
